The structures appear in SMILES notation.

The text below walks through data of patent publication US6524789B1, “Human neuronal nicotinic acetylcholine receptor compositions and methods employing same” (Merck & Co., Inc., priority 1995, dated 2003).

The subject of one assay is PC12. Put plainly: 86Rb ion-flux assay, positive control cells PC12. The conditions noted are these: Rattus norvegicus, PC-12, antagonist, 86Rb influx. It is filed as cell-based.
The target in assay [1] is T1, functional recombinant nAChR (Homo sapiens, UniProt Q15825).
T1 construct: A 1,743 bp EcoRI fragment, encoding a full-length nAChR α6 subunit, was isolated from KEα6.3; expressed in transfected cells; host or cells: HEK 293 cells, transiently or stably co-transfected
Format: cell-based.
Excerpt: Activation of the ligand-gated nAChR by agonists leads to an influx of cations, including Ca^++, through the receptor channel. Ca^++ entry into the cell through the channel can induce release of calcium contained in intracellular stores. Monovalent cation entry into the cell through the channel can also result in an increase in cytoplasmic Ca^++ levels through depolarization of the membrane and subsequent activation of voltage-dependent calcium channels. Therefore, methods of detecting transient increases in intracellular calcium concentration can be applied to the analysis of functional nicotinic nAChR expression. One method for measuring intracellular calcium levels relies on calcium-sensitive fluorescent indicators.
Calcium-sensitive indicators, such as fluo-3 (Catalog No. F01241, Molecular Probes, Inc., Eugene, Oreg.), are available as acetoxymethyl esters which are membrane permeable. […] Interaction of the free indicator with calcium results in increased fluorescence of the indicator; therefore, an increase in the intracellular Ca^2+ concentration of cells containing the indicator can be expressed directly as an increase in fluorescence.
HEK cells that are transiently or stably co-transfected with DNA encoding appropriate α and/or β subunits and α6 and β3 subunits are analyzed for expression of functional recombinant nAChR using the automated fluorescent indicator-based assay. […]

The test system of a further assay is untransfected HEK cells. The conditions noted are these: fluo-3, 200 μM nicotine.

T1 sequence (Q15825 31-494): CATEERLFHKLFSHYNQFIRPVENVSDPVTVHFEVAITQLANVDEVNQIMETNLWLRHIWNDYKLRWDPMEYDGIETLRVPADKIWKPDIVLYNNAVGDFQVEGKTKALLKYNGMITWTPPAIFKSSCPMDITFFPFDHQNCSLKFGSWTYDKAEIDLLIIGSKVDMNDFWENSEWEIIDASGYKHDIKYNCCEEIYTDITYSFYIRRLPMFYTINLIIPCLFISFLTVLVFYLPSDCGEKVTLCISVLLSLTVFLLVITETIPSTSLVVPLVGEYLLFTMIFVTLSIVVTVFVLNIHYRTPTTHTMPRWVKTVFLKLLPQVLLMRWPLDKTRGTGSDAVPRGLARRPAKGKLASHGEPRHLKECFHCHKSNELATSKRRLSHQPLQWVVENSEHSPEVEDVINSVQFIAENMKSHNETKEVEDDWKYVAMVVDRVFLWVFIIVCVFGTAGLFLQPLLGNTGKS
T1 sequence (Q05901 25-458 partner limits assumed): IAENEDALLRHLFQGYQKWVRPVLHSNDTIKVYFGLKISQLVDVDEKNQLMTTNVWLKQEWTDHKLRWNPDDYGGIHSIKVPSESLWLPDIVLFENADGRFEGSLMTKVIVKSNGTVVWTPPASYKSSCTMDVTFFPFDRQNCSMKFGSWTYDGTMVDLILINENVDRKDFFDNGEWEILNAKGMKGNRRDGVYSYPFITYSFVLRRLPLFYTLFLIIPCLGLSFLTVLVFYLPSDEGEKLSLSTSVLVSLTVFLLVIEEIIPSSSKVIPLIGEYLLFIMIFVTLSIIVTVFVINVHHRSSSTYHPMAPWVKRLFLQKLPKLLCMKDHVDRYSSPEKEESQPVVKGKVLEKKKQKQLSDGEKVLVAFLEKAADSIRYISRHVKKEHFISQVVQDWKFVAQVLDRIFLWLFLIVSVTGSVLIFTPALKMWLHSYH
Description for PC12: The ^86Rb ion-flux assay is conducted as follows:
1. The night before the experiment, cells are plated at 2×10^6 per well (i.e., 2 ml per well) in a 6-well polylysine-coated plate.
2. The culture medium is decanted and the plate washed with 2 ml of assay buffer (50 mM HEPES, 260 mM sucrose, 5.4 mM KCl, 1.8 mM CaCl2, 0.8 mM MgSO4, 5.5 mM glucose) at room temperature.
3. The assay buffer is decanted and 1 ml of assay buffer, containing 3 μCi/ml ^86Rb, with 5 mM ouabain and agoinist or antagonist in a concentration to effect a maximum response, is added.
4. The plate is incubated on ice at 1° C. for 4 min.
5. The buffer is decanted into a waste container and each well was washed with 3 ml of assay buffer, followed by two washes of 2 ml each.
6. The cells are lysed with 2×0.5 ml of 0.2% SDS per well and transferred to a scintillation vial containing 5 ml of scintillation fluid.
7. The radioactivity contained in each vial 5 is measured and the data calculated.
Description for untransfected HEK cells: HEK cells that are transiently or stably co-transfected with DNA encoding appropriate α and/or β subunits and α6 and β3 subunits are analyzed for expression of functional recombinant nAChR using the automated fluorescent indicator-based assay. The assay procedure is as follows. Untransfected HEK cells and HEK cells co-transfected with DNA encoding the appropriate α and β subunits are plated in the wells of a 96-well microtiter dish and loaded with fluo-3 by incubation for 2 hours at 20° C. in a medium containing 20 μM fluo-3, 0.2% Pluronic F-127 in HBS (125 mM NaCl, 5 mM KCl, 1.8 mM CaCl2, 0.62 mM MgSO4, 6 mM glucose, 20 mM HEPES, pH 7.4). The cells are then washed with assay buffer (i.e., HBS). The antagonist d-tubocurarine is added to some of the wells at a final concentration of 10 μM.

The term EC50 denotes the concentration at which the effect is half-maximal. Low values mean a more potent agent, high ones a less potent agent. In the assay with PC12, `CN1[C@@H]2CC[C@H]1C[C@@H](OC(=O)C(CO)c1ccccc1)C2` (stereo partly shown) [atropine] yielded a concentration giving a half-maximal response (EC50) of 12.5 µM. As to `COc1cc2c3cc1Oc1cc(ccc1O)C[C@@H]1c4c(cc(OC)c(O)c4Oc4ccc(cc4)C[C@@H]3N(C)CC2)CC[N+]1(C)C` [d-tubocurarine], the “nicotine-stimulated increase in fluorescence in cells exposed to antagonist” value in assay [1] (co-transfected HEK cells, 10 μM d-tubocurarine, 200 μM nicotine) is “not observed”. For `CN1CCCC1c1cccnc1` (stereo not shown) [nicotine], the “fluorescence after addition of nicotine” value in assay [1] is listed as “increases dramatically”; in the assay with untransfected HEK cells, “does not change”.
